A short description of data set [1]: Water solubility (water content of plasticizer by Karl Fischer titration after mixing with water). The following applies: Table 1; water uptake of plasticizer at room temperature. The format is physicochemical. On the procedure: Water Solubility 20 mL of plasticizer is taken in a beaker and mixed with equal volume of distilled water. The mixture is stirred vigorously at room temperature and allowed to settle in a separating funnel. The mixture forms an emulsion which takes approximately 24 hours to form separate layers of organic and aqueous phases. After 48 hours, the two layers are separated. The aqueous layer is drained and the organic layer containing plasticizer and some water is recovered. The organic layer contains water in dissolved form as well as in the fine emulsion form. This layer is centrifuged at 7000 rpm for one hour. This step separates water trapped in the plasticizer in dispersed form. The plasticizer is further analyzed for water content with the help of wet chemistry methods. Carl Fischer titration method is used to determine the water content in plasticizer.

Data set [2] can be described thus: Solution temperature of PVC in plasticizer (DIN 53408). In kind it is physicochemical. The following applies: 0.6 g PVC in 15 mL plasticizer, heated at 1° C./min. On the procedure: In various embodiments, the polymeric resin (such as PVC) has a solution temperature in the above-described plasticizer of less than 180° C., less than 170° C., or less than 160° C., as determined by Deutsches Institut für Normung (“DIN”) standard method 53 408.
Determine solution temperature in accordance with Deutsches Institut für Normung (“DIN”) 53408. Important test parameters such as the PVC/plasticizer amount and heating rate are optimized to be able to capture differences in solution temperature of different plasticizers in PVC. 0.6 g PVC is accurately weighed in a 20-mL glass vial and 15 mL of plasticizer is added to the PVC. The contents of the glass vial are stirred using a magnetic stirrer and heated using an oil bath at 1° C./min. A thermometer is used to record the temperature of the PVC/plasticizer mixture which is illuminated with a flash-light. When PVC is mixed with a plasticizer, a milky solution is generally obtained. As the temperature of the PVC/plasticizer mixture is raised, the PVC starts to imbibe the plasticizer and becomes translucent. As the temperature is raised further, the PVC particles swell and lose their shape forming a gel. At the solution temperature, a clear solution is obtained.

The format of data set [3] is physicochemical. The procedure:
Solubility in PVC is determined according to American Society for Testing and Materials (“ASTM”) method D 3367-98. […] Water solubility of the epoxidized fatty acid alkyl ester is determined according to the procedures described in the Test Methods section, below. Solubility in PVC Measure solubility in PVC according to ASTM D 3367-98. Test parameters, such as the design of centrifuge tubes, soak temperature, soak time, drainage of plasticizer, and centrifuge speed to remove excess plasticizer, are optimized to be able to capture differences in plasticizer absorption and solubilities of different plasticizers in PVC. Centrifuge tubes with a 0.8 mm diameter hole at the bottom are used for the test. […] During the soak time, the plasticizer molecules wet the cell walls of PVC particles and penetrate through it due to its porosity. Once inside, the molecules start filling the void space. After the void space is completely filled with plasticizer, the PVC primary particles start absorbing the plasticizer. This absorption is relatively slow and continues until the primary particles reach saturation limit. It is therefore important to optimize the PVC/plasticizer soaking temperature and time. […] The plasticizer absorbed by PVC is measured from the weight gain of PVC (after accounting for weight gain due to plasticizer absorbed by cotton).

As for `CCCCCCCCC1OC1CCCCCCCC(=O)OC` (stereo not drawn) [Sample S1, epoxidized methyl oleate], in data set [1], the “Water solubility (%)” value is on record as 0.68%. In addition, in data set [2], the “Solution temperature (° C.)” value came to 114 °C.
As for `CCCCCC1OC1CC1OC1CCCCCCCC(=O)OC` (stereo not drawn) [Sample S2, epoxidized methyl linoleate], the “Solution temperature (° C.)” value in data set [2] stood at 88 °C. For the same compound, the “Solubility in PVC (g/100 g PVC)” value in data set [3] is recorded as 244 g/100 g PVC.
On to `CCCCCCCC[C@H]1O[C@H]1CCCCCCCC(=O)OC(C)C` [Sample S7], for which the “Solution temperature (° C.)” value in data set [2] came to 134 °C. The “Solubility in PVC (g/100 g PVC)” value in data set [3] amounted to 34.1 g/100 g PVC.
On to “epoxidized methyl linolenate [CS2, reference compound]”, for which, in data set [2], the “Solution temperature (° C.)” value stood at 124 °C.
On the same count and under the same terms, to “epoxidized methyl linolenate [CS3, reference compound]” belongs 98 °C.
On the same count and under the same terms, to “epoxidized methyl linolenate [CS4, reference compound]” belongs 98 °C.

Values taken from patent US9850366B2, “Epdxidized fatty acid alkyl ester plasticizers and methods for making epdxidized fatty acid alkyl ester plasticizers” (Dow Global Technologies LLC, priority 2012, dated 2017).
